We go through three compounds from ChEMBL document CHEMBL3045455, “Design, synthesis and evaluation of novel indomethacinflavonoid mutual prodrugs as safer NSAIDs” (Med Chem Res, 2011).

Series [1] has as its system Rattus norvegicus. Briefly: Gastrointestinal toxicity in Rattus norvegicus Sprague-Dawley (rat) assessed as ulcer index at 83.98 mg/kg, po measured after 8 hr (reference value: 0.2 +/- 0.06). As to conditions: in vivo. The series is classed as organism-based. Set-up: dose 83.98 mg/kg, route oral.
Series [2] relates to Rattus norvegicus. Nature of the series: Anti-inflammatory activity in carrageenan-induced paw edema Rattus norvegicus Sprague-Dawley (rat) model assessed as increase in paw volume at 20.52 mg/kg, po measured after 4 hr. The series is classed as functional.
Series [3] deals with Rattus norvegicus. Briefly: Anti-inflammatory activity in carrageenan-induced paw edema Rattus norvegicus Sprague-Dawley (rat) model assessed as increase in paw volume at 20.52 mg/kg, po measured after 2 hr. Type of series: functional. Background: The carrageenan paw model is a standard test of acute inflammation.
Series [4] concerns Mus musculus. Briefly: Analgesic activity in Mus musculus LACCA (mouse) assessed as inhibition of acetic acid-induced writhing at 17.49 mg/kg, po measured during 20 min period beginning 3 min after acetic acid challenge. (In writhing tests, fewer writhes than in controls are read as antinociception.)
Series [5] deals with Rattus norvegicus. Briefly: Gastrointestinal toxicity in Rattus norvegicus Sprague-Dawley (rat) assessed as ulcer index at 82 mg/kg, po measured after 8 hr (reference value: 0.2 +/- 0.06). The series is classed as organism-based. Also on record: dose 82 mg/kg, route oral. The settings on record: in vivo.
The test system of series [6] is Rattus norvegicus. Briefly: Anti-inflammatory activity in carrageenan-induced paw edema Rattus norvegicus Sprague-Dawley (rat) model assessed as increase in paw volume at 23.95 mg/kg, po measured after 4 hr. The series is classed as functional.
Series [7] concerns Rattus norvegicus. Nature of the series: Anti-inflammatory activity in carrageenan-induced paw edema Rattus norvegicus Sprague-Dawley (rat) model assessed as increase in paw volume at 23.95 mg/kg, po measured after 2 hr. The series is classed as functional.
Series [8] relates to Mus musculus. Nature of the series: Analgesic activity in Mus musculus LACCA (mouse) assessed as inhibition of acetic acid-induced writhing at 17.1 mg/kg, po measured during 20 min period beginning 3 min after acetic acid challenge.
For series [9], the system named is Rattus norvegicus. Briefly: Gastrointestinal toxicity in Rattus norvegicus Sprague-Dawley (rat) assessed as ulcer index at 48 mg/kg, po measured after 8 hr (reference value: 0.2 +/- 0.06). Set-up: dose 48 mg/kg, route oral. The settings on record: in vivo. Type of series: organism-based.
The test system of series [10] is Rattus norvegicus. Briefly: Anti-inflammatory activity in carrageenan-induced paw edema Rattus norvegicus Sprague-Dawley (rat) model assessed as increase in paw volume at 12 mg/kg, po measured after 4 hr. The series is classed as functional.
Series [11] relates to Rattus norvegicus. Nature of the series: Anti-inflammatory activity in carrageenan-induced paw edema Rattus norvegicus Sprague-Dawley (rat) model assessed as increase in paw volume at 12 mg/kg, po measured after 2 hr. The series is classed as functional.
In series [12] the test system is Mus musculus. Nature of the series: Analgesic activity in Mus musculus LACCA (mouse) assessed as inhibition of acetic acid-induced writhing at 10 mg/kg, po measured during 20 min period beginning 3 min after acetic acid challenge.

What is called inhibition in vivo is the change of the read-out against control, counted positive when it falls. For `COc1ccc2c(c1)c(CC(=O)Oc1cc(O)c3c(c1)O[C@H](c1ccc(OC)c(O)c1)CC3=O)c(C)n2C(=O)c1ccc(Cl)cc1` [INDOMETHACIN-HESPERTIN], in series [1], the UI is 0.54. Also, the results for the Activity in series [2] and in series [3] were 38.22% and 37.78%, respectively. For the same compound, the inhibition in vivo at 17.49 mg/kg in [4] came to 89.4%.

Regarding `COc1ccc2c(c1)c(CC(=O)Oc1cc(O)c3c(c1)O[C@H](c1ccc(O)cc1)CC3=O)c(C)n2C(=O)c1ccc(Cl)cc1` [INDOMETHACIN-NARINGENIN], in series [5], the UI is on record as 0.62. The values for the Activity in [6] and in series [7] were 40.46% and 39.13%, respectively. In [8], the inhibition in vivo at 17.1 mg/kg turned out to be 86.7%.

Consider `COc1ccc2c(c1)c(CC(=O)O)c(C)n2C(=O)c1ccc(Cl)cc1` [INDOMETHACIN], for which the UI in series [9] was 5.54. In addition, the Activity in series [10] turned out to be 57.39%; in [11] it was 48.35%. Also, the inhibition in vivo at 10 mg/kg in series [12] was 74.2%.
